Results on 2 compounds are retold here after ChEMBL document CHEMBL4800727 (2021).

Molecules are shown by their SMILES. The source made the active and inactive calls. The rule behind the calls is not given here.

The IC50 is the concentration at which inhibition is half-maximal. A word on the inhibition: it is the drop in the measured response relative to a control, in per cent. One may read the Ki as the dissociation constant of the complex between target and ligand, obtained from inhibition or displacement.

The target of series [1] is cAMP and cAMP-inhibited cGMP 3',5'-cyclic phosphodiesterase 10A (Homo sapiens, UniProt Q9Y233). Nature of the series: In vitro assay with human PDE10A.
The target in series [2] is Alpha-2A adrenergic receptor (Homo sapiens) (UniProt P08913). Conditions: Compound concentration 10.0 uM.
The target of series [3] is D(2) dopamine receptor (Homo sapiens) (UniProt P14416). Conditions: Compound concentration 10.0 uM.
D(2) dopamine receptor (Homo sapiens), sequence (P14416 whole entry): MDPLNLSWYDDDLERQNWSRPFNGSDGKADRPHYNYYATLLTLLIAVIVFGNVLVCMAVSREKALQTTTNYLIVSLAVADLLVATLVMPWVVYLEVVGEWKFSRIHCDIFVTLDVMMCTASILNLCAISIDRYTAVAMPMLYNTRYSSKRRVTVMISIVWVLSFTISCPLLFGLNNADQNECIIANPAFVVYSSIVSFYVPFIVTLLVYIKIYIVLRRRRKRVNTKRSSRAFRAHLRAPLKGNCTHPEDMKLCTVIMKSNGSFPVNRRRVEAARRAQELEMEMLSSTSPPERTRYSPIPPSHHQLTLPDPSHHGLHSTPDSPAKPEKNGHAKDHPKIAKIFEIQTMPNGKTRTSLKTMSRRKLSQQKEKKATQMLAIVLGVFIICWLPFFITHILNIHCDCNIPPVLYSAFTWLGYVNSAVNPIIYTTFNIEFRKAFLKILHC
The target of series [4] is Serine/threonine-protein kinase PLK3 (Homo sapiens) (UniProt Q9H4B4). Nature of the series: polo-like kinase 3 Millipore kinase panel. Conditions: Compound concentration 10.0 uM.
Serine/threonine-protein kinase PLK3 (Homo sapiens), sequence (Q9H4B4 whole entry, looked up): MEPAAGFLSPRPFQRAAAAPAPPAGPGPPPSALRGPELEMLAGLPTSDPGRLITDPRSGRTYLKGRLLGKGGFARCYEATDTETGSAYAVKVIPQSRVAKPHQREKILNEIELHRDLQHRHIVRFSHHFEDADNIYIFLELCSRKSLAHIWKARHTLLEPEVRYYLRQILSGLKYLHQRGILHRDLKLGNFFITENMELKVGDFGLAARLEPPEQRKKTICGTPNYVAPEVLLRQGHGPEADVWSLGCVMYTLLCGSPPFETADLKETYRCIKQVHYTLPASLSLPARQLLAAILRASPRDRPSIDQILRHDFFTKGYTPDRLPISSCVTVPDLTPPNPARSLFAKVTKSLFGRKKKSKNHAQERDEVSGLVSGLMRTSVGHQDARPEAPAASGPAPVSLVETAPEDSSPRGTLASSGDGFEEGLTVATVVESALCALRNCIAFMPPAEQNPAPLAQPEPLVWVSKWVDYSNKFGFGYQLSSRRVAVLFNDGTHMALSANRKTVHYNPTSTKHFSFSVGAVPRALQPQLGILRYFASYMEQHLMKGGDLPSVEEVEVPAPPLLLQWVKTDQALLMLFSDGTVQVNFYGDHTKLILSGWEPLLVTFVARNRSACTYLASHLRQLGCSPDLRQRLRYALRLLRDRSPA
Series [5] is filed under the species Homo sapiens. The series can be described thus: p21 protein -activated kinase 2 Millipore kinase panel. The note with it: Compound concentration 10.0 uM.
Series [6] has as its target T1, Alpha-2B adrenergic receptor (Homo sapiens) (UniProt P18089).
T1 sequence (whole entry): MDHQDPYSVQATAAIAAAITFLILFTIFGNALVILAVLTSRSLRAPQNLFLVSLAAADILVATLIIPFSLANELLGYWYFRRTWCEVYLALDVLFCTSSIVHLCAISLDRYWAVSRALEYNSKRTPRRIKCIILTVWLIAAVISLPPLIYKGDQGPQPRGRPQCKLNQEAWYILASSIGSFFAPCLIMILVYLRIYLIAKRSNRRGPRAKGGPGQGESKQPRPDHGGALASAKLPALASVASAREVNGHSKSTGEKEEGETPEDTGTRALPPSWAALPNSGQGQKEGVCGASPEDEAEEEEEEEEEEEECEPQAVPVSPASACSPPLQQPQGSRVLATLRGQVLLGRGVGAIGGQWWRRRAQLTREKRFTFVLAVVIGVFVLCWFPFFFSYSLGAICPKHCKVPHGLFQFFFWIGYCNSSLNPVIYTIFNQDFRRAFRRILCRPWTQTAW
The series can be described thus: hAb2 Cerep panel. The note with it: Compound concentration 10.0 uM.

Series [7] has as its target Type-1 angiotensin II receptor (Homo sapiens) (UniProt P30556). The series can be described thus: hAT1 Cerep panel. The note with it: Compound concentration 10.0 uM.
Series [8] deals with Serine/threonine-protein kinase Nek2 (Homo sapiens) (UniProt P51955). The series can be described thus: NIMA -related kinase 2 Millipore kinase panel. Conditions: Compound concentration 10.0 uM.
In series [9] the target is Tyrosine-protein kinase Fer (Homo sapiens) (UniProt P16591). Nature of the series: fer (fps/fes related) tyrosine kinase Millipore kinase panel. Conditions: Compound concentration 10.0 uM.
In series [10] the target is Fibroblast growth factor receptor 3 (Homo sapiens) (UniProt P22607). The series can be described thus: fibroblast growth factor receptor 3 Millipore kinase panel. Conditions: Compound concentration 10.0 uM.
Fibroblast growth factor receptor 3 (Homo sapiens), sequence (P22607 23-806 limits assumed): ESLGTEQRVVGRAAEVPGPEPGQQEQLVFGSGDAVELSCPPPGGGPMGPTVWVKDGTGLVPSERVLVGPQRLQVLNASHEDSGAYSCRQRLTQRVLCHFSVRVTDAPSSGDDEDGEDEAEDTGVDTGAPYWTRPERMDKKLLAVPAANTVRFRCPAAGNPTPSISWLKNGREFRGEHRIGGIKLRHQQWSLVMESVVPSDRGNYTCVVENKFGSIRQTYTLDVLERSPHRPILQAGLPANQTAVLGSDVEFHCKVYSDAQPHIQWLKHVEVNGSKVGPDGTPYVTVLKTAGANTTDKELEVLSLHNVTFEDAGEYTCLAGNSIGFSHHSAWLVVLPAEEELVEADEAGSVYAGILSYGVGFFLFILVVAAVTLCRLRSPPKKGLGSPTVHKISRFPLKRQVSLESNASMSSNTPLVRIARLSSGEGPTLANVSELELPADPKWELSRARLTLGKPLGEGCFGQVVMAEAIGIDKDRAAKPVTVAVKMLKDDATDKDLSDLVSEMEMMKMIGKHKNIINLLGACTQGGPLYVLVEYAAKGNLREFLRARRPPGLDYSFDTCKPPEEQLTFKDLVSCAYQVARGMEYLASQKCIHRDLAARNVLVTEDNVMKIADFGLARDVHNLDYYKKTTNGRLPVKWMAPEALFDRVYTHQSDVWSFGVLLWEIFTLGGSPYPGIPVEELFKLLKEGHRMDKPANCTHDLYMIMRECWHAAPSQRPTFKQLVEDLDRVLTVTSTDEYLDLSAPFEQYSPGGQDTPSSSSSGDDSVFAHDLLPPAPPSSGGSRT
Series [11] concerns the target cAMP and cAMP-inhibited cGMP 3',5'-cyclic phosphodiesterase 10A (Mus musculus, UniProt Q8CA95). The series can be described thus: SPA with mouse PDE10A.
Series [12] addresses RAC-gamma serine/threonine-protein kinase (Homo sapiens) (UniProt Q9Y243). The series can be described thus: v-akt murine thymoma viral oncogene homolog 3 Millipore kinase panel. Conditions: Compound concentration 10.0 uM.
In series [13] the target is Rod cGMP-specific 3',5'-cyclic phosphodiesterase subunit alpha (Homo sapiens, UniProt P16499). Nature of the series: hPDE6AB PDE scan.
Series [14] concerns the target MAP kinase-interacting serine/threonine-protein kinase 2 (Homo sapiens) (UniProt Q9HBH9). The series can be described thus: MAP kinase interacting serine/threonine kinase 2 Millipore kinase panel. The note with it: Compound concentration 10.0 uM.
Series [15] has as its target Acetylcholinesterase (Homo sapiens) (UniProt P22303). Nature of the series: hACHE Cerep panel. The note with it: Compound concentration 10.0 uM.
Series [16] deals with Serine/threonine-protein kinase PLK2 (Homo sapiens) (UniProt Q9NYY3). The series can be described thus: polo-like kinase 2 Millipore kinase panel. The note with it: Compound concentration 10.0 uM.
Serine/threonine-protein kinase PLK2 (Homo sapiens), sequence (Q9NYY3 whole entry, looked up): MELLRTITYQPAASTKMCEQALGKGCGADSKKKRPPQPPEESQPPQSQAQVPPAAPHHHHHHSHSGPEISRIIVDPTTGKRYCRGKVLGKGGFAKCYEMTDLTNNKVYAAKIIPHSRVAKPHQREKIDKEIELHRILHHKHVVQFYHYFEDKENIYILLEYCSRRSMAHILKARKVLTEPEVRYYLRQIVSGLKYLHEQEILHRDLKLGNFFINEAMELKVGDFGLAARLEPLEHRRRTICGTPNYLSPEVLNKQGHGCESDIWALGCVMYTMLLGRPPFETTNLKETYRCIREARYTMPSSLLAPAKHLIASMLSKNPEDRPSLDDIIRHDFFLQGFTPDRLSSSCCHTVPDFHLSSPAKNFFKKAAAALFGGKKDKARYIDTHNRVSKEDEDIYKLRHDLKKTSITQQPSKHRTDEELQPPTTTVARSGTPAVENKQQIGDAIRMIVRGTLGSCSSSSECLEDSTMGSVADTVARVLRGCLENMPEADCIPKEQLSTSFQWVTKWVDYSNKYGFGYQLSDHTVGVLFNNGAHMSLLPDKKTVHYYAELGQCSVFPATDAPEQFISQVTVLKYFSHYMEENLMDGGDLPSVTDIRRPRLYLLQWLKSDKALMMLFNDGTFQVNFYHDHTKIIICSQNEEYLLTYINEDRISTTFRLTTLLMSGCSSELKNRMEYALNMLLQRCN
Series [17] has as its target Tyrosine-protein kinase Lck (Homo sapiens) (UniProt P06239). Nature of the series: lymphocyte-specific protein tyrosine kinase Millipore kinase panel. The note with it: Compound concentration 10.0 uM.
The target in series [18] is D(2) dopamine receptor (Homo sapiens) (UniProt P14416). Nature of the series: hD2S Cerep panel. Conditions: Compound concentration 10.0 uM.
In series [19] the target is Endothelin-1 receptor (Homo sapiens) (UniProt P25101). The series can be described thus: hETA Cerep panel. Conditions: Compound concentration 10.0 uM.
Series [20] deals with Serine/threonine-protein kinase TBK1 (Homo sapiens) (UniProt Q9UHD2). The series can be described thus: TANK-binding kinase 1 Millipore kinase panel. Conditions: Compound concentration 10.0 uM.
For series [21], the target named is Protein kinase C beta type (Homo sapiens) (UniProt P05771). Nature of the series: protein kinase C, beta 1 Millipore kinase panel. Conditions: Compound concentration 10.0 uM.
The target of series [22] is High affinity 3',5'-cyclic-AMP phosphodiesterase 7A (Homo sapiens, UniProt Q13946). Nature of the series: hPDE7A1 PDE scan.
Series [23] deals with cAMP-dependent protein kinase catalytic subunit PRKX (Homo sapiens) (UniProt P51817). The series can be described thus: protein kinase, X-linked Millipore kinase panel. Conditions: Compound concentration 10.0 uM.
cAMP-dependent protein kinase catalytic subunit PRKX (Homo sapiens), sequence (P51817 whole entry): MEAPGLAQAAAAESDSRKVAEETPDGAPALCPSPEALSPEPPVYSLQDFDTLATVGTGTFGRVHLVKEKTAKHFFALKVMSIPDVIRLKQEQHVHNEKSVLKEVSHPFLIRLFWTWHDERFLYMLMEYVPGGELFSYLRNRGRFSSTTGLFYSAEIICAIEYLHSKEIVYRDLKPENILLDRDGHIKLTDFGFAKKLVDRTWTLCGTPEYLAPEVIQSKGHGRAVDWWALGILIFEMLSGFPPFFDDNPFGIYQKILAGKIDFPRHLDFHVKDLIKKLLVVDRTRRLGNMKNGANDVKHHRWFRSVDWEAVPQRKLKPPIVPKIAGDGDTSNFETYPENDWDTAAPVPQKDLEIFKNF
For series [24], the target named is Ephrin type-A receptor 2 (Homo sapiens) (UniProt P29317). The series can be described thus: EPH receptor A2 Millipore kinase panel. The note with it: Compound concentration 10.0 uM.
Series [25] addresses Glycogen synthase kinase-3 beta (Homo sapiens) (UniProt P49841). Nature of the series: glycogen synthase kinase 3 beta Millipore kinase panel. The note with it: Compound concentration 10.0 uM.
Series [26] addresses Receptor tyrosine-protein kinase erbB-4 (Homo sapiens) (UniProt Q15303). Nature of the series: v-erb-a erythroblastic leukemia viral oncogene homolog 4 Millipore kinase panel. Conditions: Compound concentration 10.0 uM.
Series [27] deals with BDNF/NT-3 growth factors receptor (Homo sapiens) (UniProt Q16620). Nature of the series: neurotrophic tyrosine kinase, receptor, type 2 Millipore kinase panel. Conditions: Compound concentration 10.0 uM.
Series [28] deals with Receptor-interacting serine/threonine-protein kinase 2 (Homo sapiens) (UniProt O43353). The series can be described thus: receptor-interacting serine-threonine kinase 2 Millipore kinase panel. Conditions: Compound concentration 10.0 uM.
The target in series [29] is MAP kinase-activated protein kinase 2 (Homo sapiens) (UniProt P49137). The series can be described thus: mitogen-activated protein kinase-activated protein kinase 2 Millipore kinase panel. Conditions: Compound concentration 10.0 uM.
In series [30] the target is Serine/threonine-protein kinase 33 (Homo sapiens) (UniProt Q9BYT3). Nature of the series: serine/threonine kinase 33 Millipore kinase panel. The note with it: Compound concentration 10.0 uM.
Series [31] addresses Amine oxidase [flavin-containing] A (Homo sapiens, UniProt P21397). The series can be described thus: hMAOA Cerep panel. The note with it: 10 µM, compound concentration 10 uM.
The target of series [32] is Mitogen-activated protein kinase 10 (Homo sapiens) (UniProt P53779). Nature of the series: mitogen-activated protein kinase 10 Millipore kinase panel. The note with it: Compound concentration 10.0 uM.
Series [33] has as its target Mitogen-activated protein kinase 1 (Homo sapiens) (UniProt P28482). The series can be described thus: mitogen-activated protein kinase 1 (MAPK2) Millipore kinase panel. The note with it: Compound concentration 10.0 uM.
For series [34], the target named is SRSF protein kinase 3 (Homo sapiens) (UniProt Q9UPE1). The series can be described thus: SFRS protein kinase 3 Millipore kinase panel. The note with it: Compound concentration 10.0 uM.
Series [35] concerns the target Serine/threonine-protein kinase D1 (Homo sapiens) (UniProt Q15139). Nature of the series: protein kinase D1 Millipore kinase panel. Conditions: Compound concentration 10.0 uM.
The target in series [36] is Serine/threonine-protein kinase Chk1 (Homo sapiens) (UniProt O14757). Nature of the series: CHK1 checkpoint homolog (S. pombe) Millipore kinase panel. The note with it: Compound concentration 10.0 uM.
For series [37], the species on record is Rattus norvegicus. Nature of the series: rK channel Cerep panel. Conditions: Compound concentration 10.0 uM.
Series [38] deals with Ephrin type-A receptor 3 (Homo sapiens) (UniProt P29320). The series can be described thus: EPH receptor A3 Millipore kinase panel. Conditions: Compound concentration 10.0 uM.
In series [39] the target is Mu-type opioid receptor (Homo sapiens) (UniProt P35372). Nature of the series: hOP3 Cerep panel. Conditions: Compound concentration 10.0 uM.
Mu-type opioid receptor (Homo sapiens), sequence (P35372 whole entry): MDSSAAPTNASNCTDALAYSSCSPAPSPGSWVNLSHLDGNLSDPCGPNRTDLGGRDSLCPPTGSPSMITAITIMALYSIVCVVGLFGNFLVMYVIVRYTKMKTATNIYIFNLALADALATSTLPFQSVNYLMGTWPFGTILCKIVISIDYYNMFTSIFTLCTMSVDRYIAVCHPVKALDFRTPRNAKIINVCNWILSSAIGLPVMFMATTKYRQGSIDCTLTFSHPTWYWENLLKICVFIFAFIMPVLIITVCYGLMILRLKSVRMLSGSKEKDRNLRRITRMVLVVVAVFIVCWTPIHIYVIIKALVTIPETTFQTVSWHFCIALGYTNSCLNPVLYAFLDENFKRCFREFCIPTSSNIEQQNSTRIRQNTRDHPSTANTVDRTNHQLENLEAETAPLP
Series [40] addresses Cyclin-dependent kinase 5/CDK5 activator 1 (Homo sapiens) (UniProt Q00535+Q15078). Nature of the series: cyclin-dependent kinase 5 / p35 Millipore kinase panel. The series is classed as protein-complex assay. Conditions: Compound concentration 10.0 uM.
The target in series [41] is cGMP-dependent protein kinase 2 (Homo sapiens) (UniProt Q13237). Nature of the series: protein kinase, cGMP-dependent, type II Millipore kinase panel. The note with it: Compound concentration 10.0 uM.
Series [42] deals with Cholecystokinin receptor type A (Homo sapiens) (UniProt P32238). The series can be described thus: hCCKA Cerep panel. Conditions: Compound concentration 10.0 uM.
The target of series [43] is Ephrin type-B receptor 1 (Homo sapiens) (UniProt P54762). The series can be described thus: EPH receptor B1 Millipore kinase panel. Conditions: Compound concentration 10.0 uM.
The species entered for series [44] is Homo sapiens. The series can be described thus: protein kinase C, beta 2 Millipore kinase panel. Conditions: Compound concentration 10.0 uM.

Glycogen synthase kinase-3 beta (Homo sapiens), sequence (P49841 whole entry, looked up): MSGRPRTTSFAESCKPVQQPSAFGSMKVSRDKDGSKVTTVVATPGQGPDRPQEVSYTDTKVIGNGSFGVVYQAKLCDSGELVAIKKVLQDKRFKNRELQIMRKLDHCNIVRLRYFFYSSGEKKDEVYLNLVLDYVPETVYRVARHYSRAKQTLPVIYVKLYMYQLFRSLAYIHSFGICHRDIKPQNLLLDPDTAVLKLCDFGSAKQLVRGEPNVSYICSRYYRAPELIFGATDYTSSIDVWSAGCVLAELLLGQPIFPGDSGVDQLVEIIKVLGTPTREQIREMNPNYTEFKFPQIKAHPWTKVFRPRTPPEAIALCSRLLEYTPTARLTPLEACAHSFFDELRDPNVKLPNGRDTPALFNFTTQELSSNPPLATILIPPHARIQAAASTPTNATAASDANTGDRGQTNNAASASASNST
Receptor tyrosine-protein kinase erbB-4 (Homo sapiens), sequence (Q15303 whole entry): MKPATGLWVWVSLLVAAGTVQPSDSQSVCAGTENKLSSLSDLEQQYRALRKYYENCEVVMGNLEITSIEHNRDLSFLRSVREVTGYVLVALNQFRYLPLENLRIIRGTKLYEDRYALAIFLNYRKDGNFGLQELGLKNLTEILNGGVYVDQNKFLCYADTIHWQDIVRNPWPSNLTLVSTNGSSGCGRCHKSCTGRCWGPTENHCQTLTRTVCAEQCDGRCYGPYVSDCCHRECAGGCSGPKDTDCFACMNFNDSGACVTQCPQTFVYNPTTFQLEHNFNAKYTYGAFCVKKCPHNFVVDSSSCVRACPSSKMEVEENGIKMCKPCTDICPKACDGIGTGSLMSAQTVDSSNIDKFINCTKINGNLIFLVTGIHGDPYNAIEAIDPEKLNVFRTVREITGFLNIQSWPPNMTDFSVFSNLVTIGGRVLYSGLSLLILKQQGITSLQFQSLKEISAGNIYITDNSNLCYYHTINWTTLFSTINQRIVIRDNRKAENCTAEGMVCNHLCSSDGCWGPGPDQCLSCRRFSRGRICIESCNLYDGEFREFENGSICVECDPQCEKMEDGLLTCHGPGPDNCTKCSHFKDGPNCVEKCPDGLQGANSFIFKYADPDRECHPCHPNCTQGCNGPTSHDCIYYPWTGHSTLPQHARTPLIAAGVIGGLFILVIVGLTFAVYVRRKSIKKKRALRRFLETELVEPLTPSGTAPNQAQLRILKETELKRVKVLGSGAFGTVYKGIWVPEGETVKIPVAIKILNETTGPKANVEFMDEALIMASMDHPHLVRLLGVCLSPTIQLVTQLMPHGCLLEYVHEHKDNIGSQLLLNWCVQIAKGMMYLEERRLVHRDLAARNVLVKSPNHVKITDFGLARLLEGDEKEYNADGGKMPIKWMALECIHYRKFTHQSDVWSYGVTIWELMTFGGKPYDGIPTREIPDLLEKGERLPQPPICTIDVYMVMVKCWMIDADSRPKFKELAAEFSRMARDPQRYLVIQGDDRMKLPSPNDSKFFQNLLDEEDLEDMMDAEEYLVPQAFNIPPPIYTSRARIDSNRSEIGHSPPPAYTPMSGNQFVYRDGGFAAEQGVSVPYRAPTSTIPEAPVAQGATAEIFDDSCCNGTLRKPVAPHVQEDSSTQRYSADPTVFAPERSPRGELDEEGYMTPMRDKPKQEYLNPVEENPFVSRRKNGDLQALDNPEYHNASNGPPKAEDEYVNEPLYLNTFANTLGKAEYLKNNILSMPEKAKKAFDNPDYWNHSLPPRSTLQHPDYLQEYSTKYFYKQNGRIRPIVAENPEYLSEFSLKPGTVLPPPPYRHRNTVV

In the case of `c1ccc(C2CCN(c3cnc4c(N5CCOCC5)nccn34)CC2)cc1`, in series [1], the IC50 is > 10 µM (not active). Also, the inhibition in [2] was 34.6%; in series [3], 1.22%.

As to `COCCc1ccc(-c2c(C)nc3c(N4CCOCC4)ccnn23)cn1` [JNJ-42396302], the inhibition in [4] was -2%; in [5], -3%; in series [8], -1%; in [9], 0%; in series [10], -2%; in series [12] it was 24%. Further, the inhibition is 10% in series [14]; -7% in [16]; 13% in series [17]; -3% in [20]; -5% in series [21]; 4% in series [23]. For the same compound, the inhibition is 7% in [24]; -1% in [25]; 9% in series [26]; -5% in [27]; -6% in series [28]; -5% in series [29]. In addition, the inhibition in series [30] is -1%; in series [32] it was 18%; in [33], 4%; in [34] it was -6%; in series [35], -5%; in series [36], -9%. The inhibition in series [38] is 4%; in series [40], -5%; in series [41] it was 1%; in [43], 2%; in series [44] it was 3%. The effect is -4.45% in series [6]; 14.4% in [7]; 0.2% in series [15]; 1.7% in series [18]; 5.55% in series [19]; 13.8% in series [31]. Moreover, the effect in [37] was -9.45%; in series [39], 2.15%; in [42], -19.6%. Besides, the Ki in [11] is 0.011 µM (active); in series [13], 85 µM; in series [22], 23 µM.
